pKi: −log10 of the molar value.

Assay [1] deals with T1, carboxypeptidase A (Bos taurus, UniProt P00730).
T1 construct: gene CPA1
T1 sequence (P00730 111-419): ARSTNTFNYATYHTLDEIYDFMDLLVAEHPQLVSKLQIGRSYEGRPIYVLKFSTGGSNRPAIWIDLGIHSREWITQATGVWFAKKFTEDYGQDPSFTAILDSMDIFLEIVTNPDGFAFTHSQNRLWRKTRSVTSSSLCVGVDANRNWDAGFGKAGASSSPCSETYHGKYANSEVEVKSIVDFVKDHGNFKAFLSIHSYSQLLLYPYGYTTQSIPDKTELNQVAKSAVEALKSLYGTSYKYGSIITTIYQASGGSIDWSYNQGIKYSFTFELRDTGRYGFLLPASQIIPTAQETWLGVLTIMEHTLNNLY
Kind of assay: competitive enzyme inhibition assay with AAFP substrate, absorbance; Ki from IC50 by Cheng-Prusoff. The class given is biochemical.

Assay [2] concerns the target T1, carboxypeptidase A. Put plainly: X-ray crystal structure at […] Å; Ki from competitive inhibition assay with AAFP substrate. Format: biochemical.

Regarding `O=C(O)C[C@@H](Cc1ccccc1)C(=O)O` [BzlSA, benzylsuccinic acid], in assay [1], the pKi – broadly, the Ki on a negative log10 scale, so that one unit is a factor of ten – is 6.28.

Consider `O=C(O)CC(O)(CC(=O)O)C(=O)O` [citrate], for which, in assay [2], the pKi is 2.30.
